Measurements published in patent publication US20200368260A1, “USE OF BENZOPYRAN COMPOUND IN PREPARATION OF PRODUCT FOR REGULATING LIPID METABOLISM AND COMPOSITION OF THE SAME” (priority 2019, published 2020).

Tested on: high-fat HepG2 cells
Assay: Cellular aspartate aminotransferase (AST) content, AST kit
Format: cell-based, human
Conditions: for level of AST in a high fat cell: FIGS. 4D, 5D; for level of AST, compared with control group and low dose group: medium and high doses
Protocol: 2. The culture, model establishment and experimental steps of the cells were operated according to the above steps. The anthocyanin compound mother liquor was diluted to 0, 0.1, 1, 10, 50, and 100 μM to treat the high-fat HepG2 cells, respectively.
3. The culture solution was pipetted off, gently washed with PBS for 3 times, and added with trypsin to digest the cells for 1 min The cell suspension was pipetted into a 1.5 mL sterile EP tube, centrifuged at 1000 rpm for 10 minutes, the supernatant was discarded, the pellet was added with an appropriate amount of PBS, ultrasonically crushed under the condition of an ice-water bath, and the prepared homogenate was not centrifuged and was ready for determination.
The intracellular aspartate aminotransferase (AST) content was determined according to the operating instructions of an AST kit. 1.2.4 Effect of petunidin-3-O-β-D glucoside and malvidin-3-O-β-D glucose on autophagy of HepG2 cells

Q: How did the “level of AST in a high fat cell” value turn out when `COc1cc(-c2[o+]c3cc(O)cc(O)c3cc2O[C@@H]2O[C@H](CO)[C@@H](O)[C@H](O)[C@H]2O)cc(OC)c1O` [malvidin-3-O-β-D glucoside] was run?
A: Its value is “reduce”.

Q: What about the “level of AST, compared with control group and low dose group” value of the same compound?
A: The value was “very significant reduction”.

Q: Which “level of AST in a high fat cell” value does the source give for `COc1cc(-c2[o+]c3cc(O)cc(O)c3cc2O[C@@H]2O[C@H](CO)[C@@H](O)[C@H](O)[C@H]2O)cc(O)c1O` [petunidin-3-O-β-D glucoside] here?
A: The value was “reduce”.

Q: And the “level of AST, compared with control group and low dose group” value?
A: The value was “very significant reduction”.
